Data: PubChem BioAssay AID248 (DTP/NCI, 2004)
Values joined by “and” are separate entries in the source; they are usually repeats but may differ in a detail not shown here. Equal values may be shown once. Toxic doses and inconclusive results are not listed. Rule as the data show it: active = T/C of 150% or more; inactive = T/C below 125%.

System: L1210 leukemia ip in BDF1 mice, survival T/C
Experiment: NCI In Vivo Anticancer Drug Screen. Data for tumor model L1210 Leukemia (intraperitoneal) in B6D2F1 (BDF1) mice
Conditions: endpoint: mean survival time, higher = longer survival
In short: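 Tumor was transplanted into mice, which were then dosed with test compound or vehicle alone. Survival was recorded for each group, and the treated figure was expressed relative to the control figure.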

[1] = dose: 10.0 mg/kg/injection, schedule: Q01DX001 (ip), vehicle: saline
[2] = dose: 20.0 mg/kg/injection, schedule: Q01DX001 (ip), vehicle: saline
[3] = dose: 100.0 mg/kg/injection, schedule: Q01DX009 (ip), vehicle: saline with Tween-80
[4] = dose: 100.0 mg/kg/injection, schedule: Q04DX003 (ip), vehicle: saline with Tween-80
[5] = dose: 200.0 mg/kg/injection, schedule: Q01DX009 (ip), vehicle: saline with Tween-80
[6] = dose: 200.0 mg/kg/injection, schedule: Q04DX003 (ip), vehicle: saline with Tween-80
[7] = dose: 400.0 mg/kg/injection, schedule: Q04DX003 (ip), vehicle: saline with Tween-80
[8] = dose: 100.0 mg/kg/injection, schedule: Q01DX009 (ip), vehicle: Klucel (hydroxypropylcellulose) (HPC)
[9] = dose: 100.0 mg/kg/injection, schedule: Q04DX003 (ip), vehicle: Klucel (hydroxypropylcellulose) (HPC)
[10] = dose: 200.0 mg/kg/injection, schedule: Q01DX009 (ip), vehicle: Klucel (hydroxypropylcellulose) (HPC)
[11] = dose: 200.0 mg/kg/injection, schedule: Q04DX003 (ip), vehicle: Klucel (hydroxypropylcellulose) (HPC)
[12] = dose: 400.0 mg/kg/injection, schedule: Q04DX003 (ip), vehicle: Klucel (hydroxypropylcellulose) (HPC)
[13] = dose: 400.0 mg/kg/injection, schedule: Q01DX009 (ip), vehicle: Klucel (hydroxypropylcellulose) (HPC)
[14] = dose: 50.0 mg/kg/injection, schedule: Q01DX009 (ip), vehicle: Klucel (hydroxypropylcellulose) (HPC)
[15] = dose: 50.0 mg/kg/injection, schedule: Q01DX009 (ip), vehicle: saline with Tween-80
[16] = dose: 100.0 mg/kg/injection, schedule: Q01DX001 (ip), vehicle: Klucel (hydroxypropylcellulose) (HPC)
[17] = dose: 200.0 mg/kg/injection, schedule: Q01DX001 (ip), vehicle: Klucel (hydroxypropylcellulose) (HPC)
[18] = dose: 400.0 mg/kg/injection, schedule: Q01DX001 (ip), vehicle: Klucel (hydroxypropylcellulose) (HPC)

Measured: T/C

C1OC1C1CO1 (stereo not given)
inactive: dose: 6.25 mg/kg/injection, schedule: Q01DX009 (ip), vehicle: saline 92 % of control | [1] 106 % of control | dose: 12.5 mg/kg/injection, schedule: Q01DX009 (ip), vehicle: saline 104 % of control | dose: 12.5 mg/kg/injection, schedule: Q04DX003 (ip), vehicle: saline 110 % of control | [2] 103 % of control | dose: 25.0 mg/kg/injection, schedule: Q01DX009 (ip), vehicle: saline 114 % of control | dose: 25.0 mg/kg/injection, schedule: Q04DX003 (ip), vehicle: saline 119 % of control | dose: 40.0 mg/kg/injection, schedule: Q01DX001 (ip), vehicle: saline 114 % of control | dose: 44.0 mg/kg/injection, schedule: Q01DX001 (ip), vehicle: saline 105 % of control | dose: 50.0 mg/kg/injection, schedule: Q04DX003 (ip), vehicle: saline 105 % of control

COc1cc(CCl)c(OC)cc1Cl
inactive: [3] 100 % of control | [4] 99 % of control | [5] 106 % of control | [6] 91 % of control | [7] 99 % of control

OCCNc1nc2cc(Cl)ccc2c2ccc(Cl)cc12
inactive: [8] 91 % of control | [9] 96 % of control | [10] 99 % of control | [11] 93 % of control | [12] 96 % of control

CC(C)COC(=O)c1ccccc1O
inactive: [8] 98 % of control | [9] 96 % of control | [10] 99 % of control | [11] 96 % of control | [13] 87 % of control | [12] 89 % of control

Clc1c(CI)ccc(CI)c1Cl
inactive: dose: 6.25 mg/kg/injection, schedule: Q01DX009 (ip), vehicle: saline with Tween-80 100 % of control | dose: 12.5 mg/kg/injection, schedule: Q01DX009 (ip), vehicle: saline with Tween-80 92 % of control | dose: 25.0 mg/kg/injection, schedule: Q01DX009 (ip), vehicle: Klucel (hydroxypropylcellulose) (HPC) 93 % of control | dose: 25.0 mg/kg/injection, schedule: Q01DX009 (ip), vehicle: saline with Tween-80 92 % of control | [14] 108 % of control | [15] 89 % of control | [9] 89 % of control

CCC[CH2][Sn]([CH2]CCC)([CH2]CCC)[O]C(=O)CC[S][Sn]([CH2]CCC)([CH2]CCC)[CH2]CCC
inactive: dose: 0.5 mg/kg/injection, schedule: Q01DX015 (ip), vehicle: saline 97 % of control | dose: 1.0 mg/kg/injection, schedule: Q01DX015 (ip), vehicle: saline 100 % of control | dose: 2.0 mg/kg/injection, schedule: Q01DX015 (ip), vehicle: saline 95 % of control | dose: 2.5 mg/kg/injection, schedule: Q01DX001 (ip), vehicle: saline 103 % of control | dose: 4.0 mg/kg/injection, schedule: Q01DX015 (ip), vehicle: saline 87 % of control | dose: 5.0 mg/kg/injection, schedule: Q01DX001 (ip), vehicle: saline 100 % of control | [1] 105 % of control | [2] 97 % of control

Nc1nc2ncc(CN(C(=O)C(F)(F)F)c3ccc(C(=O)NC(CCC(=O)O)C(=O)O)cc3)nc2c(=O)[nH]1 (stereo not given)
inactive: [16] 100 % of control | [17] 107 % of control | [18] 111 % of control

Cn1c(N)c(N=CC2CC=CCC2)c(=O)n(C)c1=O (stereo not given)
inactive: dose: 50.0 mg/kg/injection, schedule: Q01DX001 (ip), vehicle: other 103 % of control | dose: 100.0 mg/kg/injection, schedule: Q01DX001 (ip), vehicle: other 97 % of control | dose: 200.0 mg/kg/injection, schedule: Q01DX001 (ip), vehicle: other 92 % of control | dose: 400.0 mg/kg/injection, schedule: Q01DX001 (ip), vehicle: other 97 % of control

Cc1ccc([N+](=O)[O-])cc1CN(CCO)CCO
inactive: dose: 100.0 mg/kg/injection, schedule: Q01DX001 (ip), vehicle: saline 101 % of control | dose: 200.0 mg/kg/injection, schedule: Q01DX001 (ip), vehicle: saline 95 % of control | dose: 400.0 mg/kg/injection, schedule: Q01DX001 (ip), vehicle: saline 98 % of control

Nc1nc(N)c2nnn(C3CC(O)C(CO)C3)c2n1 (stereo not given)
inactive: [15] 89 % of control | [3] 96 % of control | [5] 92 % of control

CCOC(=O)c1ccc(NC(=O)Oc2ccc(Cl)cc2C)cc1
inactive: [8] 101 % of control | [10] 92 % of control | [13] 95 % of control

CC1CCc2nc(C#N)c(N)nc2C1 (stereo not given)
inactive: [14] 103 % of control | [8] 97 % of control | [10] 106 % of control

CC1=C(C)Cc2c(OC(=O)c3ccccc3)ccc(OC(=O)c3ccccc3)c2C1
inactive: dose: 3.12 mg/kg/injection, schedule: Q01DX009 (ip), vehicle: water 101 % of control | dose: 6.25 mg/kg/injection, schedule: Q01DX009 (ip), vehicle: water 101 % of control | dose: 12.5 mg/kg/injection, schedule: Q01DX009 (ip), vehicle: water 96 % of control | dose: 25.0 mg/kg/injection, schedule: Q01DX009 (ip), vehicle: water 98 % of control and 119 % of control | dose: 50.0 mg/kg/injection, schedule: Q01DX009 (ip), vehicle: water 101 % of control | dose: 100.0 mg/kg/injection, schedule: Q01DX009 (ip), vehicle: water 90 % of control | dose: 200.0 mg/kg/injection, schedule: Q01DX009 (ip), vehicle: water 90 % of control | dose: 400.0 mg/kg/injection, schedule: Q01DX009 (ip), vehicle: water 97 % of control

ClCC1(CCl)OCCO1
inactive: dose: 75.0 mg/kg/injection, schedule: Q01DX001 (ip), vehicle: carboxymethylcellulose (CMC) 95 % of control | dose: 150.0 mg/kg/injection, schedule: Q01DX001 (ip), vehicle: carboxymethylcellulose (CMC) 104 % of control

O=C(N/N=C\c1ccc(O)cc1)N/N=C/c1ccc(O)cc1
inactive: [16] 94 % of control | [17] 95 % of control | [18] 89 % of control

CCOC(=O)/C(Cc1ccc2ccccc2n1)=N/O
inactive: dose: 50.0 mg/kg/injection, schedule: Q01DX009 (ip), vehicle: saline 93 % of control | dose: 100.0 mg/kg/injection, schedule: Q01DX009 (ip), vehicle: saline 98 % of control | dose: 100.0 mg/kg/injection, schedule: Q04DX003 (ip), vehicle: saline 98 % of control | dose: 200.0 mg/kg/injection, schedule: Q01DX009 (ip), vehicle: saline 87 % of control | dose: 200.0 mg/kg/injection, schedule: Q04DX003 (ip), vehicle: saline 96 % of control | dose: 400.0 mg/kg/injection, schedule: Q04DX003 (ip), vehicle: saline 93 % of control

CC(=O)/C(=C\c1ccc(Cl)c(Cl)c1)C(=O)c1ccccc1
inactive: dose: 100.0 mg/kg/injection, schedule: Q01DX009 (ip), vehicle: other 97 % of control | dose: 100.0 mg/kg/injection, schedule: Q04DX003 (ip), vehicle: other 95 % of control | dose: 200.0 mg/kg/injection, schedule: Q01DX009 (ip), vehicle: other 103 % of control | dose: 200.0 mg/kg/injection, schedule: Q04DX003 (ip), vehicle: other 91 % of control | dose: 400.0 mg/kg/injection, schedule: Q04DX003 (ip), vehicle: other 93 % of control

Cc1ccc(S)c(C)c1
inactive: [9] 93 % of control | [11] 95 % of control

Clc1ccc2c(c1)/C(=C/c1cccnc1)c1cc(Cl)cc(Cl)c1-2
inactive: [8] 93 % of control | [9] 88 % of control | [17] 94 % of control | [10] 90 % of control | [11] 95 % of control | [18] 90 % of control | [12] 88 % of control

Cc1ccc(NC(=O)NCCCCCCNC(=O)Nc2ccc(C)c(Cl)c2)cc1Cl
inactive: [4] 93 % of control | [5] 89 % of control | [6] 92 % of control | [7] 95 % of control

CC[CH2][Sn]([CH2]CC)([CH2]CC)[O]C(=O)C(Cl)(Cl)Cl
inactive: dose: 0.39 mg/kg/injection, schedule: Q01DX009 (ip), vehicle: saline with Tween-80 87 % of control | dose: 0.78 mg/kg/injection, schedule: Q01DX009 (ip), vehicle: saline with Tween-80 98 % of control | dose: 1.56 mg/kg/injection, schedule: Q01DX009 (ip), vehicle: saline with Tween-80 91 % of control
